Measurements taken from ChEMBL document CHEMBL5465560, “Selectivity Literature for EUbOPEN Chemogenomic Library” (2024).

Key:
[1] = molecular target: Dual specificity testis-specific protein kinase 1 (Homo sapiens) (UniProt Q15569); assay: Selectivity interaction (KinomeScan (DiscoverX)) EUB0000666a TESK1; conditions: at 10 µM
[2] = molecular target: Casein kinase II subunit alpha (Homo sapiens, UniProt P68400); assay: Selectivity interaction (KinomeScan (DiscoverX)) EUB0001079a CSNK2A1; conditions: at 1 µM
Sequence of Casein kinase II subunit alpha (P68400 whole entry, looked up): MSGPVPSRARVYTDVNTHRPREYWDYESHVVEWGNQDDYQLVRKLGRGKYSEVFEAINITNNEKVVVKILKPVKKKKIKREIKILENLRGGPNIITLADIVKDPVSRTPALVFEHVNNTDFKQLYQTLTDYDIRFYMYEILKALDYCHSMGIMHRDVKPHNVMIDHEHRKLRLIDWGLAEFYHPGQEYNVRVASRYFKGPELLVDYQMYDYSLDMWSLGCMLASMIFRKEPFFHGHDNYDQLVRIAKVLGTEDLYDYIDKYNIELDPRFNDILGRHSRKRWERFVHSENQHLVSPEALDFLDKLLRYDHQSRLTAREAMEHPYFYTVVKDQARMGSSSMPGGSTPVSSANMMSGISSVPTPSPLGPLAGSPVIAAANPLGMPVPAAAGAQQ

[3] = molecular target: T1, Serine/threonine-protein kinase BRSK2 (Homo sapiens) (UniProt Q8IWQ3); assay: Selectivity interaction (KinomeScan (DiscoverX)) EUB0001079a BRSK2; conditions: at 1 µM
T1 sequence (whole entry): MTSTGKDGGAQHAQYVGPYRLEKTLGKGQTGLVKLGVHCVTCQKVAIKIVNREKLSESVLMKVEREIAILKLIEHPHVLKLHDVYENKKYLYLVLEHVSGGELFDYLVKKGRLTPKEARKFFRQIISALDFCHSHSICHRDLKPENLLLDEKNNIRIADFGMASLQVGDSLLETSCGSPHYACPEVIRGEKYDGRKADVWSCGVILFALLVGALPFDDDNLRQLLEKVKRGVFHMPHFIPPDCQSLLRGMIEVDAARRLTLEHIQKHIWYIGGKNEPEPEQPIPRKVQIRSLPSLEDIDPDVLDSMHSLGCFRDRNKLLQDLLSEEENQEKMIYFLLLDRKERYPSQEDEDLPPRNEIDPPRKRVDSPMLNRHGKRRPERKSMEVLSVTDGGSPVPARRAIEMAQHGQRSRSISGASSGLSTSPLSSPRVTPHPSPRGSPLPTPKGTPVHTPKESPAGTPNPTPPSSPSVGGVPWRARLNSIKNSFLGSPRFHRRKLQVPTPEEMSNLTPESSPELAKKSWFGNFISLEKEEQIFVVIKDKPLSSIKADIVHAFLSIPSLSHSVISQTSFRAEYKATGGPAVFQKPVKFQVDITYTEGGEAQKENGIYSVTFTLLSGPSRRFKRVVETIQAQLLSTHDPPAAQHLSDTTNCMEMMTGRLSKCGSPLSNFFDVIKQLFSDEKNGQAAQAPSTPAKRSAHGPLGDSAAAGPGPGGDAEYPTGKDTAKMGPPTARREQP

[4] = molecular target: T2, Beta-adrenergic receptor kinase 1 (Homo sapiens) (UniProt P25098); assay: Selectivity interaction (ActivX KiNativ screen (kinase selectivity in THP-1 cell lysates)) EUB0000639a ADRBK1; type: subcellular; conditions: lysate
T2 sequence (whole entry): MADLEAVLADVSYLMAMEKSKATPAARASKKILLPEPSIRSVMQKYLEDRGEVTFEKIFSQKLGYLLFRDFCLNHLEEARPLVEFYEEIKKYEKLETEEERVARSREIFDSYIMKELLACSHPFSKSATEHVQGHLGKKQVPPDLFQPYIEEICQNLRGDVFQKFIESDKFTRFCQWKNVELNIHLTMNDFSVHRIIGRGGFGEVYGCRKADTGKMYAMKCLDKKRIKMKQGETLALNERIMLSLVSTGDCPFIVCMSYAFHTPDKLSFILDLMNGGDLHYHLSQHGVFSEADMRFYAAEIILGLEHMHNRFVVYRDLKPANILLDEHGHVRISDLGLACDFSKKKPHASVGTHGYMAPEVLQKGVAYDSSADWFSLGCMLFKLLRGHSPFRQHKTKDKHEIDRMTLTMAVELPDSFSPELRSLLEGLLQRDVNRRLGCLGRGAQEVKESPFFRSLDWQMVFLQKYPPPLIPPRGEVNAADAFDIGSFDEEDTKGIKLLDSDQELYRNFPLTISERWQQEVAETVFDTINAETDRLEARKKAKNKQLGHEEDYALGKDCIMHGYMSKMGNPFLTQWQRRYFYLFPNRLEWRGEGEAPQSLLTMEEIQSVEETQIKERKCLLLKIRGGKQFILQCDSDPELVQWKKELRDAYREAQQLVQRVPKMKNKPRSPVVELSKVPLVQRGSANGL

[5] = molecular target: Ribosomal protein S6 kinase alpha-5 (Homo sapiens) (UniProt O75582); assay: Selectivity interaction (KinomeScan (DiscoverX)) EUB0000092b RPS6KA5; conditions: at 10 µM
Sequence of Ribosomal protein S6 kinase alpha-5 (Homo sapiens) (O75582 whole entry, looked up): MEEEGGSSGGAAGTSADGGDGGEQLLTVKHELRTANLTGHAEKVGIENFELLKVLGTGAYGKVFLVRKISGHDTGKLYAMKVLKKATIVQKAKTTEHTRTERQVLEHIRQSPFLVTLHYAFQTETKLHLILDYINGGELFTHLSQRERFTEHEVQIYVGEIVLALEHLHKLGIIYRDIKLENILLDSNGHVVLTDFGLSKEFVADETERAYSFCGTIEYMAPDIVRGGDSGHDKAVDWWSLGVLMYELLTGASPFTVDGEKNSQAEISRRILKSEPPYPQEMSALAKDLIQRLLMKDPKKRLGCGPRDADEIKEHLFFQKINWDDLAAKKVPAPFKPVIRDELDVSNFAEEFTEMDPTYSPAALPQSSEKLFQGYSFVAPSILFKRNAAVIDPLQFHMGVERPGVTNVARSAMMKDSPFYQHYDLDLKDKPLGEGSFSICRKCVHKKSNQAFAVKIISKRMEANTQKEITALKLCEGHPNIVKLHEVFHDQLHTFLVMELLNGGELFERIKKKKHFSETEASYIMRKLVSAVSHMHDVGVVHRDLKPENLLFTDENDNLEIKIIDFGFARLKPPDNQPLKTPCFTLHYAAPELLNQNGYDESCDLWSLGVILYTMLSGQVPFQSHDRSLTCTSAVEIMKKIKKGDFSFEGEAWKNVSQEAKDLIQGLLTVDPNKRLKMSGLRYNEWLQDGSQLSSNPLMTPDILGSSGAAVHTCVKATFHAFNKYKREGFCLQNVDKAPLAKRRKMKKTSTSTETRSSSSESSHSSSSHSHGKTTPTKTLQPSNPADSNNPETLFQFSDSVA

[6] = molecular target: Serine/threonine-protein kinase MRCK gamma (Homo sapiens) (UniProt Q6DT37); assay: Selectivity interaction (KinomeScan (DiscoverX)) EUB0000092b CDC42BPG; conditions: at 10 µM
Sequence of Serine/threonine-protein kinase MRCK gamma (Homo sapiens) (Q6DT37 whole entry): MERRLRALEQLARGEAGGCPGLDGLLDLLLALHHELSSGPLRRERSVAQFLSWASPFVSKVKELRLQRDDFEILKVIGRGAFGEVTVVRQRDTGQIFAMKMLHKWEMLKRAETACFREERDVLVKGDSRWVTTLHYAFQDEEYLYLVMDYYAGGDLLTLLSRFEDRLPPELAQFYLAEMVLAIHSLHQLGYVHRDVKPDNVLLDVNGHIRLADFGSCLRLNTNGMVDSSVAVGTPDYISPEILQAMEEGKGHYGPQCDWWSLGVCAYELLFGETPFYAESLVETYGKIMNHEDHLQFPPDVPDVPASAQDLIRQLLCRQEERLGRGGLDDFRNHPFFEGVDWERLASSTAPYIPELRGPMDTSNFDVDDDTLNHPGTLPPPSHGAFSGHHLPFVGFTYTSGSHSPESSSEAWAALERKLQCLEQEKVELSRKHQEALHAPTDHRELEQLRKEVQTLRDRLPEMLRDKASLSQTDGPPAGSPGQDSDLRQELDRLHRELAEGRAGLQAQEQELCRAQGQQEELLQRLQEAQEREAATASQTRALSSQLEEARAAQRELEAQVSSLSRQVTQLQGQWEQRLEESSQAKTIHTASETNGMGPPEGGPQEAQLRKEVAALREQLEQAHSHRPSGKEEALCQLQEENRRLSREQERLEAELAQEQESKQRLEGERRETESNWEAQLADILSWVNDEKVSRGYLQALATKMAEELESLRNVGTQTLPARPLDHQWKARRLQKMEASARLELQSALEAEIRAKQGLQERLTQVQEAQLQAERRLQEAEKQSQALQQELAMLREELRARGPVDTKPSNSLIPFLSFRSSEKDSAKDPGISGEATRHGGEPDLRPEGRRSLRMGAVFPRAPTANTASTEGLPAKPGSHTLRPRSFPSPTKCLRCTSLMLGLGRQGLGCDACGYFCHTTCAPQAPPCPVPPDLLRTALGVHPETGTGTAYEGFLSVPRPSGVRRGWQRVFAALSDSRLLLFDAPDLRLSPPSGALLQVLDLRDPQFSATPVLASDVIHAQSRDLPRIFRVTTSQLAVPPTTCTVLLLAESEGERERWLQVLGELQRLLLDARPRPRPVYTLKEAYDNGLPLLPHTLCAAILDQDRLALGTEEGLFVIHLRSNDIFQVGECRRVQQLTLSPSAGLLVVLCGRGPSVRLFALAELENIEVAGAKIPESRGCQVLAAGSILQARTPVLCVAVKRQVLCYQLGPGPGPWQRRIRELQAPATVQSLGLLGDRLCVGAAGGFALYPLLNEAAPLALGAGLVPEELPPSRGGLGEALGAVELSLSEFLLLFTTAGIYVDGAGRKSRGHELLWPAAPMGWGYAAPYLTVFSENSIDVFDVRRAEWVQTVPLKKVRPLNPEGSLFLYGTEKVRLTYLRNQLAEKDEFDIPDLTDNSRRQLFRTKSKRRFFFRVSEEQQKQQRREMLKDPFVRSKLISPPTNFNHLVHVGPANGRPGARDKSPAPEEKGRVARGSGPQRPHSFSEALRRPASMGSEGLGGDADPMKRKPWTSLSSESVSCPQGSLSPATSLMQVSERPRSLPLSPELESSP

[7] = molecular target: Cyclin-dependent kinase 16 (Homo sapiens) (UniProt Q00536); conditions: at 10 µM
Sequence of Cyclin-dependent kinase 16 (Homo sapiens) (Q00536 whole entry): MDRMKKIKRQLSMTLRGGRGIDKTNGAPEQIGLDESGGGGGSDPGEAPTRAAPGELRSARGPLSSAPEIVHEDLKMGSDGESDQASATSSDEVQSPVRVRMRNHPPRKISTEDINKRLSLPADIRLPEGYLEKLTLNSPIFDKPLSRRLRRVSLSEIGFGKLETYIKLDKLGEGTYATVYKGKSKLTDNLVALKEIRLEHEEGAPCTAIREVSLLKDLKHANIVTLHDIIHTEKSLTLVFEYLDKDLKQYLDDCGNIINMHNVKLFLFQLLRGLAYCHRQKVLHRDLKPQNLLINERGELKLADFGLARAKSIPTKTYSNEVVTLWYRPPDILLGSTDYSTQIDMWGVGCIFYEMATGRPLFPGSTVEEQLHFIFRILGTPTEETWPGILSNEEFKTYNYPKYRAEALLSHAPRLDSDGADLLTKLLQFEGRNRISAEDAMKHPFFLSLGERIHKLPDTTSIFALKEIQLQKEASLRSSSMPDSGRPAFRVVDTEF

[8] = molecular target: Serine/threonine-protein kinase VRK2 (Homo sapiens) (UniProt Q86Y07); conditions: at 10 µM
Sequence of Serine/threonine-protein kinase VRK2 (Homo sapiens) (Q86Y07 whole entry): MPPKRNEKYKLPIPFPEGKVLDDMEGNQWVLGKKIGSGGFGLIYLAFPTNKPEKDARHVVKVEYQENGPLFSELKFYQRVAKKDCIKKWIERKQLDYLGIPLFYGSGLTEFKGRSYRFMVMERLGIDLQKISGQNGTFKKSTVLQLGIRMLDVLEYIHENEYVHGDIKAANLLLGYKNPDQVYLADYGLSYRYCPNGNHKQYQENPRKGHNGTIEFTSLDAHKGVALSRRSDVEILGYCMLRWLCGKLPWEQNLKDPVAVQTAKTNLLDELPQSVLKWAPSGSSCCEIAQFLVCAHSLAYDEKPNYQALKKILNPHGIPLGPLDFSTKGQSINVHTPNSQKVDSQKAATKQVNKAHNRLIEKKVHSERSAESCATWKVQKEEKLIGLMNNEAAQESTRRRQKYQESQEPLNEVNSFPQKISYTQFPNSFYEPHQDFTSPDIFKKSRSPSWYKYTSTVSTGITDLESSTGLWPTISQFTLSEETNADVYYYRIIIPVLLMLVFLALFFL

[9] = molecular target: T3, Mitogen-activated protein kinase kinase kinase 2 (Homo sapiens) (UniProt Q9Y2U5); assay: Selectivity interaction (ActivX KiNativ screen (ex vivo kinase selectivity in human PBMCs)) EUB0001619a MAP3K2; type: cell-based; conditions: PBMC, at 1 µM
T3 sequence (whole entry): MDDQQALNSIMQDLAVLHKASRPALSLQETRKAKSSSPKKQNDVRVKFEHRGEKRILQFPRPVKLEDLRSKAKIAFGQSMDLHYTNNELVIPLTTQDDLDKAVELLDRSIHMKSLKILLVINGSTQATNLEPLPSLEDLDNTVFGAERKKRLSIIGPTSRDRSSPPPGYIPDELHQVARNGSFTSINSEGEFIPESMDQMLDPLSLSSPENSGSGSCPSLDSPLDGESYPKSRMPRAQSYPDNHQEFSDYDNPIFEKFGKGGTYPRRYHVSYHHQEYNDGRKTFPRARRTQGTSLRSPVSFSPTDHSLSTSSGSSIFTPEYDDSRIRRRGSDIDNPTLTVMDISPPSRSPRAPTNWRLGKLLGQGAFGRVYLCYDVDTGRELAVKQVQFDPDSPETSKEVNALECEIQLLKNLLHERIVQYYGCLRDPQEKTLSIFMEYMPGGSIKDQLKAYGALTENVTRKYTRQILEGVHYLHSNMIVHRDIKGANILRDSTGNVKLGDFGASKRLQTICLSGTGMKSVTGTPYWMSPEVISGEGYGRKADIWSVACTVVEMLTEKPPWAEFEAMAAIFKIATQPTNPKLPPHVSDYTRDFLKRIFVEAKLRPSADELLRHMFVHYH

Sequence of Dual specificity testis-specific protein kinase 1 (Homo sapiens) (Q15569 whole entry, looked up): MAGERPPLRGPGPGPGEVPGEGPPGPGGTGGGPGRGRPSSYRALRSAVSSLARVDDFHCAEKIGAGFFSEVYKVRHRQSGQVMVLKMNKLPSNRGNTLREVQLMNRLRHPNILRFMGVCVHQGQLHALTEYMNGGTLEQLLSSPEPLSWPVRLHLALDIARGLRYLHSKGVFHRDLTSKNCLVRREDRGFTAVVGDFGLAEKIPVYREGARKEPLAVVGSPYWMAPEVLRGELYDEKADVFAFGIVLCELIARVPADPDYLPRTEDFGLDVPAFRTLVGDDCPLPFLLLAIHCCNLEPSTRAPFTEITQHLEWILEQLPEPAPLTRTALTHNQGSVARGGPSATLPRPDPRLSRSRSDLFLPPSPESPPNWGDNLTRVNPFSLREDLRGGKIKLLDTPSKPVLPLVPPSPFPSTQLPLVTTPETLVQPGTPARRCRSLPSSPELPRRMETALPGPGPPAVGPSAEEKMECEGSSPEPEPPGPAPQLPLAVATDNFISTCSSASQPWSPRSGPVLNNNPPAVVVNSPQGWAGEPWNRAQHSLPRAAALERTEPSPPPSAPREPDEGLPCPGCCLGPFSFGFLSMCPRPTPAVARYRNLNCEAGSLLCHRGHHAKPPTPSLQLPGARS

Question: For `O=C(NOC[C@H](O)CO)c1ccc(F)c(F)c1Nc1ccc(I)cc1F`, which % of control [1] is on record?
Answer: 98%

Question: Which % of control [2] does the source give for `Nc1cnc(N2CCc3cc(S(=O)(=O)Nc4c(F)cc(Cl)cc4F)cc(N4CCCC4=O)c32)nc1` [TP-020n] here?
Answer: 100%

Question: And the % of control [3]?
Answer: 80%

Question: `CC[C@@H]1[C@H](F)C(=O)N[C@@H]1COc1nccc2cc(C(N)=O)c(OC)cc12` [ZIMLOVISERTIB] was tested. Which % of inhibition ([4]; at 0.01 µM) did it give?
Answer: 5.6%

Question: What about the % of inhibition ([4]; at 0.04 µM) of the same compound?
Answer: 8%

Question: What about the % of inhibition ([4]; at 0.2 µM) of the same compound?
Answer: 9.7%

Question: What about the % of inhibition ([4]; at 1 µM) of the same compound?
Answer: 14.3%

Question: And the % of inhibition ([4]; at 5 µM)?
Answer: 12.1%

Question: Which % of control [5] does the source give for `CCC(=O)N1CCN(c2ccc(-n3c(=O)ccc4cnc5ccc(-c6cnc7ccccc7c6)cc5c43)cc2C(F)(F)F)CC1` here?
Answer: 100%

Question: And the % of control [6]?
Answer: 1.6%

Question: With `Cc1cc([C@@H](C)Nc2ccccc2C(=O)O)c2nc(N3CCOCC3)cc(=O)n2c1` [AZD-6482] as the compound, how does the % of control [7] read?
Answer: 100%

Question: What about the % of control [8] of the same compound?
Answer: 100%

Question: `N#Cc1cccc(-c2c[nH]c3ncnc(N4CCOCC4)c23)c1` was tested. Which % of inhibition [9] did it give?
Answer: 15%
